Measurements published in patent US11523610B2, “Regulating plant growth using a diapocarotenoid” (King Abdullah University of Science and Technology, priority 2018, dated 2022).

Tests used:
[1] = test system: Arabidopsis root growth (Col-0 seedlings); assay: Primary root length of Arabidopsis seedlings on treated half MS agar plates; type: in vivo; settings: 25 μM, 7 dps
Description: β-cyclocitral, β-ionone and D′orenone (β-Apo-13-caroteneone) (FIG. 1A) were purchased from Buchem (Netherlands). Diapo1, Diapo2, Diapo3, Diapo4, Diapo5, and Diapo6 (FIG. 1B) were synthesized by Buchem (Netherlands). Diapo3 was also synthesized together with D6-anchorene and anchorene derivatives according to the protocol of SCHEME 2. Apocarotenoids and diapocarotenoids were dissolved in acetone to make stock solutions (10 mM). For the screening experiments, each chemical was diluted in half strength Murashige and Skoog (MS) media (with 0.5% sucrose+1% agar, 0.5 g/L MES, pH 5.7) to reach indicated concentrations of 25 μM and 5 μM. A stock solution of 10 mM GR24 (Chiralix, Netherlands) was also made by diluting GR24 in acetone. Stock solutions of D15 (100 mM), Norflurazone (5 mM), and CPTA (50 mM) were made in dimethyl sulfoxide (DMSO). For experiments, these compounds were diluted in concentrations of 125 μM D15, 500 nM Norflurazone, or 100 μM CPTA, respectively. 1-Naphthaleneacetic acid (NAA) and N-1-Naphthylphthalamic Acid (NPA) were purchased from Sigma-Aldrich (Germany) and dissolved in water to make 1 mM stock solutions. For NAA and NPA treatments, media containing 0.1 μM NAA and 1 μM NPA were used. Unless otherwise noted, all commercially available compounds were used as provided without further purification.
Sterilized Col-0 and mutants seeds were kept at 4° C. in darkness for 3 days to stimulate seed germination, and then sown on half strength MSO plates (with 0.5% sucrose +1% agar, 0.5g/L MES, pH 5.7) supplemented with the indicated chemicals as described below or in the Figures. Plates were vertically grown in PERCIVAL® growth chambers under long day (16 h light/8 h dark, 22° C., 60% relative humidity, light density: 4000 LUX) LED white light [HYPERIKON® 16 W LED Light Bulb A21, 16 W (100 W Equivalent), CRI92, 1620 Lumens, 4000K (Daylight Glow)] conditions. Light fluorescence rates were measured using a digital LUX meter ([…]® 5025).
(§1) ANRs were counted in seedlings vertically grown on half strength MS (with 0.5% sucrose +1% agar, 0.5 g/L MES, pH 5.7) media 8 days post-stratification (dps) using a dissection microscope. To investigate ANR formation after root apical meristems (RAM) excision (ANR-RE), RAM of seedlings were excised using sterile scalpels at 5 dps and then grown for another 3 days prior to counting the number of emerged ANRs. RAM of seedlings were excised at 8 dps and then grown for another 3 days prior to counting the number of emerged LRs. For determining the effect of anchorene on lateral roots, the number of emerged lateral roots were counted using a dissection microscope at 8 dps. For primary root length measurements, seedlings were measured using the publicly available ImageJ software (downloaded from rsbweb.nih.gov/ij/) after taking digital photographs. For adventitious root assay, the number of emerged adventitious roots per plant were counted after 5 days of treatment on plates with or without anchorene.
Six previously identified or predicted diapocarotenoids with chain lengths ranging from C9 to C15 (Diapo1-6) (FIG. 1B) and 3 apocarotenoids (FIG. 1C) were selected to identify new carotenoid-derived signals involved in root development). These compounds were selected because they are available and stable at ambient conditions. Diapo1 (C9) is the expected product formed upon cleavage of all-trans-β-apo-10′ carotenal. Diapo2 (C10) results from cleaving the C7, C8 and C15, C15′ double bonds in different carotenoids and is produced by cyanobacterial retinal-forming enzymes from Cm-apocarotenoids. Diapo3 (C10) is a structural isomer of Diapo2 and a predicted cleavage product that can be formed by cutting the C11, C12 and C11′, C12′ bonds in almost all plant carotenoids (FIGS. 1A, 1B and 17). Diapo4 (C12) results from cleaving the C7, C8 and C13′, C14′ bonds in many carotenoids, and is formed by the CCD1 from apo-10′-lycopenal.

[2] = test system: Arabidopsis seedlings (anchor roots after RAM excision); assay: ANR formation after root apical meristem excision (ANR-RE); type: in vivo
Excerpt: as §1
ANR formation under carotenoid-deficient conditions was monitored to determine the role of endogenous carotenoids in ANR development. […] Therefore, ANR formation was monitored after RAM excision (ANR-RE) to stimulate ANR development. ANR measurements were used as an indicator of ANR formation capacity under different conditions. […] Norflurazon (NF) and 2-(4-chlorophenylthio)-triethylamine hydrochloride (CPTA), which block phytoene desaturation and lycopene cyclization, respectively were tested (FIG. 6A). The effect of D15, an inhibitor of CCDs was also investigated. Application of D15 to Arabidopsis seedlings is known to lead to an increase in carotenoid levels.

[3] = test system: Arabidopsis seedlings (anchor roots); assay: Anchor root (ANR) emergence/formation in seedlings without RAM excision; type: in vivo; settings: for activity in promoting ANR formation: anchorene isomer and derivatives, concentrations as indicated in FIGS. 3G-H
Description: Sterilized Col-0 and mutants seeds were kept at 4° C. in darkness for 3 days to stimulate seed germination, and then sown on half strength MSO plates (with 0.5% sucrose +1% agar, 0.5g/L MES, pH 5.7) supplemented with the indicated chemicals as described below or in the Figures. Plates were vertically grown in PERCIVAL® growth chambers under long day (16 h light/8 h dark, 22° C., 60% relative humidity, light density: 4000 LUX) LED white light [HYPERIKON® 16 W LED Light Bulb A21, 16 W (100 W Equivalent), CRI92, 1620 Lumens, 4000K (Daylight Glow)] conditions. Light fluorescence rates were measured using a digital LUX meter (PEAKTECH® 5025).
as §1
Prior to the anchor root (ANR) measurements, seeds from 10 ecotypes (Po-0, Is-0, Wu-0, Col-0, Cvi-0, Hi-0, Ove-0, Sav-0, Ler and Kin-0) were harvested from plants grown in long-day photoperiod conditions (16h light/8 h darkness, 22° C., 60% humidity). Seeds of all 10 ecotypes were surfaced sterilized and incubated in sterile water at 4° C. for 8 days, for uniform germination. Natural ANR emergence and ANRC was measured as described above (Anchor root assays) for each ecotype. 20 μM anchorene was used to test the responses of the Po-0 and Is-0 ecotypes to anchorene.
Excision of the root apical meristems (RAM) triggers ANR formation (FIGS. 3C-D). […] About 9% of control Col-0 seedlings developed ANRs under normal conditions, while approximately 50% formed ANRs upon RAM excision (FIGS. 4B-C). […] Higher anchorene concentrations (10 and 20 μM) enhanced this ratio to 97% and 100%, respectively (FIGS. 4B-C). There was also an increase in the number of seedlings that developed two ANRs from 0% in the untreated control to approximately 80% upon application of 20 μM anchorene (FIGS. 4B-C). Using a wide range of concentrations, a dose-response curve was established in the presence and absence of RAM excision. […] Thus, the promotion of ANRs is not caused by inhibiting primary root growth.

pDR5::LUC seedlings = assay: Luciferase assay in pDR5::LUC auxin marker line; type: in vivo, Arabidopsis; settings: 1 μM NF, 20 μM anchorene
Description: Luciferase activity was assayed as previously described. Briefly, 1 mL of 5 mM Potassium Luciferin (Gold Biotechnology®) dissolved in water was directly applied to pDR5:LUC seedlings grown vertically on treated half strength MS plates. The luciferin solution was allowed to dry for 5-10 minutes in the dark, at room temperature. Seedlings were then imaged using a Lumazone™ CA automated Chemiluminescence system. Seven minute exposure times were used.
A pDR5::LUC line, which marks LR prebranch sites, was used to track ANR development. […] ANR primordia initiation was observed as early as 3 dps, in anchorene treated pDR5::LUC and 158 pDR5rev::GFP seedling (FIGS. 5A-C).

pDR5rev::GFP seedlings = assay: Confocal microscopy of pDR5rev::GFP auxin marker line; type: in vivo, Arabidopsis; settings: single compound, 20 μM anchorene, 1 μM NF
Excerpt: To examine pDR5Rev::GFP fluorescence at the collet region, live seedlings were directly used for laser scanning confocal microscopy (Zeiss LSM 510 microscope) examination.
For fluorescence intensity quantification of pDR5Rev::GFP and pPIN3::PIN3-GFP marker lines, ImageJ software (rsbweb.nih.gov/ij/) was used after taking confocal microscopy photos. All calculations are background subtracted.

[4] = LC-MS quantification of anchorene in Arabidopsis tissues
Description: About 30 mg (30-40 mg) of freeze-dried and ground Arabidopsis seedlings tissues were extracted using 1 mL of acetonitrile with anti-oxidant [0.1% butylated hydroxytoluene (BHT)] for 15 min in an ultrasonic bath (Branson® 5510EDTH, 25° C., 15 min), followed by centrifugation for 8 min at 13000 rpm at 4° C. The collected supernatant was dried using a concentrator (Labconco RapidVap® System). The extract was derivatized (SCHEME 3) with 50 μL of derivatization solution containing 5 mg/mL derivatization reagent (N^2,N^2,N^4,N^4-tetraethyl-6-hydrazineyl-1,3,5-triazine-2,4-diamine) (Chemspace) and 1% formic acid in methanol at 37° C. for 15 min. Then the sample solution was diluted to 150 μL with 1% formic acid in methanol and filtered by using 0.22 μm filter before LC-MS analysis.
The quantitative analysis of derivative anchorene were carried out on HPLC-Q-Trap MS/MS. Chromatographic separation was achieved on an Acquity UPLC CSH C18 column (50×2.1 mm; 1.7 μm; Waters) using a mobile phase consisting of water: acetonitrile (95:5, v:v, A) and pure acetonitrile (B), both containing 0.1% formic acid. A gradient was applied, starting with 10% B and increasing to 40% B over 5 min. Then 15% B was increased
within 10 min followed by an increase of 45% B over 2 min. And then 100% B was maintained for 10 min. To equilibrate the column before the next run, the mobile phase was adjusted back to 10% B in 1 min and this concentration was maintained for 8 min prior to the next sample injection. A flow rate of 0.15 mL/min and a column temperature of 40° C. were maintained throughout the run. The eluent of the column was introduced to the mass spectrometer using turbo spray ion source in positive mode. The injection volume was 10 μL. The conditions of the mass spectrometer were set as following: curtain gas: 30; ion spray voltage: 5 kV; temperature: 400° C.; ion source gas 1: 30; ion source gas 2: 40; declustering potential, 55; entrance potential: 10; collision energy: 25; collision cell exit potential: 10. […]

[5] = 1 μM NF, 100 μM CPTA, 150 μM D15, RAM cut at 5 DAG, grown 3 more days

C\C(C=O)=C/C(C)=C/C=C/C=C/C=O [Diapo4, 8,14′-diapocarotene-8,14′-dial]
inhibition of primary root growth [1]: weak inhibition

O=C(O)c1ccccc1C(=O)Nc1cccc2ccccc12 [NPA, N-1-Naphthylphthalamic Acid]
ANR-RE ([2]; 0.1 μM NAA, 1 μM NPA): completely blocked

O=C(O)Cc1cccc2ccccc12 [NAA, 1-Naphthaleneacetic acid]
ANR-RE ([2]; 0.1 μM NAA, 1 μM NPA): greatly increased

C\C(=C/C=C/C=C(\C)C(=O)O)C(=O)O [AR di-acid, (2E,4E,6E)-2,7-dimethylocta-2,4,6-trienedioic acid]
activity in promoting ANR formation [3]: inactivity

C\C(C=O)=C/C=C/C=C/C=C(C)/C=C(\C)C=O [Diapo5, 8,12′-diapocarotene-8,12′-dial]
reduction in primary root growth [1]: approximately 80%

C\C(C=O)=C/C(C)=C/C=C/C=O [Diapo2, 8,15-diapocarotene-8,15-dial]
reduction in primary root growth [1]: approximately 80% | ANR formation ([3]; 25 μM (FIGS. 3G-H)): modest increase

CCN(CC)CCSc1ccc(Cl)cc1.Cl [CPTA, 2-(4-chlorophenylthio)-triethylamine hydrochloride]
ANR-RE [2, 5]: strongly reduced

CCOC(=O)/C(C)=C/C=C/C=C(\C)C(=O)OCC [AR di-ethyl ester, diethyl (2E,4E,6E)-2,7-dimethylocta-2,4,6-trienedioate]
activity in promoting ANR formation [3]: inactivity

CNc1cnn(-c2cccc(C(F)(F)F)c2)c(=O)c1Cl [NF, Norflurazon]
ANR-RE [2, 5]: strongly reduced | LUC signal in the collet (pDR5::LUC seedlings): clear LUC signal was detected | GFP signal at the collet / ANR primordia (pDR5rev::GFP seedlings): No significant reduction | anchorene content of whole seedlings after NF treatment ([4]; 24 hours NF treatment, 2 μM NF): decreases | anchorene content of whole seedlings after NF treatment ([4]; continuous NF treatment): greatly decreases

C\C(=C/C=C/C=C(\C)CO)CO [AR di-alcohol, (2E,4E,6E)-2,7-dimethylocta-2,4,6-triene-1,8-diol]
activity in promoting ANR formation [3]: inactivity

CC1=C[C@H](O/C=C2/C(=O)O[C@@H]3c4ccccc4C[C@H]23)OC1=O [GR24]
ANR formation (ANR-RE) ([2]; 1 μM GR24): inhibited ANR formation

CC1=CC(=O)CC(C)(C)[C@@]1(O)/C=C/C(C)=C\C(=O)O [ABA, abscisic acid]
ANR-RE ([2]; 0.1 and 0.5 μM ABA): did not impact

CC(/C=C/C=O)=C\C=C\C=O [Diapo1, 10,14′-diapocarotene-10,14′-dial]
inhibition of primary root growth [1]: weak inhibition
